Reference: US7851493B2, “Phenyl-1,2,4-oxadiazolone derivatives with phenyl group, processes for their preparation and their use as pharmaceuticals” (Sanofi-Aventis, priority 2005, dated 2010)
One block for each compound: values may come before it.

Legend:
[1] = molecular target: T1, human PPARdelta (Homo sapiens, UniProt Q03181); assay: Cellular PPARdelta assay (human GAL4 luciferase reporter, stably transfected HEK cell line); format: cell-based
T1 construct: amino acids S139-Y441; expressed in transfected cells; plasmid pcDNA3
T1 sequence (Q03181 139-441): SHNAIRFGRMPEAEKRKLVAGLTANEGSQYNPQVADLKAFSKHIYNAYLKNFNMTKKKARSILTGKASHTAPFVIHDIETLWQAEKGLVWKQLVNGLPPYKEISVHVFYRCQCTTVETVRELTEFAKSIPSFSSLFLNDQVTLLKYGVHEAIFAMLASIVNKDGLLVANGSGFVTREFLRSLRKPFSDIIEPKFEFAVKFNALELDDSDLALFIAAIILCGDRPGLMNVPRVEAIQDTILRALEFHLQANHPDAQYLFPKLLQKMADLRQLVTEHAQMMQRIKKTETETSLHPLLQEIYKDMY
Method: Determination of EC50 Values of PPAR Agonists in the Cellular PPARdelta Assay
(§1) The potency of substances which bind to human PPARdelta and activate it in an agonistic manner is analyzed using a stably transfected HEK cell line (HEK=human embryo kidney) which is referred to here as PPARdelta reporter cell line. In analogy to the assay described for PPARalpha, the PPARdelta reporter cell line also contains two genetic elements, a luciferase reporter element (pdeltaM-GAL4-Luc-Zeo) and a PPARdelta fusion protein (GR-GAL4-humanPPARdelta-LBD) which mediates expression of the luciferase reporter element depending on a PPARdelta ligand. The stably and constitutively expressed fusion protein GR-GAL4-humanPPARdelta-LBD binds in the cell nucleus of the PPARdelta reporter cell line via the GAL4 protein portion to the GAL4 DNA binding motifs 5′-upstream of the luciferase reporter element which is stably integrated in the genome of the cell line. There is only little expression of the luciferase reporter gene in the absence of a PPARdelta ligand if fatty acid-depleted fetal calf serum (cs-FCS) is used in the assay. PPARdelta ligands bind and activate the PPARdelta fusion protein and thereby stimulate expression of the luciferase reporter gene. The luciferase which is formed can be detected by means of chemiluminescence via an appropriate substrate.
Construction of the PPARdelta Reporter Cell Line
The production of the stable PPARdelta reporter cell line is based on a stable HEK-cell clone which was stably transfected with a luciferase reporter element. This step was already described above in the section “construction of the PPARalpha reporter cell line”. In a second step, the PPARdelta fusion protein (GR-GAL4-humanPPARdelta-LBD was stably introduced into this cell clone. For this purpose, the cDNA coding for the N-terminal 76 amino acids of the glucocorticoid receptor (Accession #P04150) was linked to the cDNA section coding for amino acids 1-147 of the yeast transcription factor GAL4 (Accession #P04386). The cDNA of the ligand-binding domain of the human PPARdelta receptor (amino acids S139-Y441; Accession #L07592) was cloned in at the 3′-end of this GR-GAL4 construct. The fusion construct prepared in this way (GR-GAL4-humanPPARdelta-LBD) was recloned into the plasmid pcDNA3 (Invitrogen) in order to enable constitutive expression by the cytomegalovirus promoter. This plasmid was linearized with a restriction endonuclease and stably transfected into the previously described cell clone containing the luciferase reporter element. The resulting PPARdelta reporter cell line which contains a luciferase reporter element and constitutively expresses the PPARdelta fusion protein (GR-GAL4-human PPARdelta-LBD) was isolated by selection with zeocin (0.5 mg/ml) and G418 (0.5 mg/ml).
Assay Procedure and Evaluation
The activity of PPARdelta agonists is determined in a 3-day assay in exact analogy to the procedure already described for the PPARalpha reporter cell line except that the PPARdelta reporter cell line and a specific PPARdelta agonist was used as a standard to control test efficacy.

[2] = molecular target: T2, human PPARalpha (Homo sapiens, UniProt Q07869); assay: Cellular PPARalpha assay (human GAL4 luciferase reporter, stably transfected HEK cell line); format: cell-based
T2 construct: amino acids S167-Y468; expressed in transfected cells; plasmid pcDNA3
T2 sequence (Q07869 167-468): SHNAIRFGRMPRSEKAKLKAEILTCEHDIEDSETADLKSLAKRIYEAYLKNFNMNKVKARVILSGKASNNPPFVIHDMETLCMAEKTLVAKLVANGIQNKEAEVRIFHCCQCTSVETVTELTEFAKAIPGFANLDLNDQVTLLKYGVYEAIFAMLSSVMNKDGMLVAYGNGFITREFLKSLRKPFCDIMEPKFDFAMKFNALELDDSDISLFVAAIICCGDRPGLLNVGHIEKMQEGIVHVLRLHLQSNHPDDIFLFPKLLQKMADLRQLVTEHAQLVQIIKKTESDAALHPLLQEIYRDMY
Method: Determination of EC50 Values of PPAR Agonists in the Cellular PPARalpha Assay
as §1, with “PPARalpha” for “PPARdelta”, “It” for “In analogy to the assay described for PPARalpha, the PPARdelta reporter cell line also”, “(GR-GAL4-humanPPARalpha-LBD)” for “(GR-GAL4-humanPPARdelta-LBD)”, “GR-GAL4-humanPPARalpha-LBD” for “GR-GAL4-humanPPARdelta-LBD”, “weak” for “little”, “stimulate the” for “stimulate”
Construction of the PPARalpha Reporter Cell Line
The PPARalpha reporter cell line was prepared in two stages. Firstly, the luciferase reporter element was constructed and stably transfected into HEK cells. For this purpose, five binding sites of the yeast transcription factor GAL4 (Accession #AF264724) were cloned in 5′-upstream of a 68 bp-long minimal MMTV promoter (Accession #V01175). The minimal MMTV promoter section contains a […] and a TATA element in order to enable efficient transcription by RNA polymerase II. The cloning and sequencing of the GAL4-MMTV construct took place in analogy to the description of Sambrook J. et al. (Molecular cloning, Cold Spring Harbor Laboratory Press, 1989). Then the complete Photinus pyralis gene (Accession #15077) was cloned in 3′-downstream of the GAL4-MMTV element. After sequencing, the luciferase reporter element consisting of five GAL4 binding sites, MMTV promoter and luciferase gene was recloned into a plasmid which confers zeocin resistance in order to obtain the plasmid pdeltaM-GAL4-Luc-Zeo. This vector was transfected into HEK cells in accordance with the statements in Ausubel, F. M. et al. (Current protocols in molecular biology, Vol. 1-3, John Wiley & Sons, Inc., 1995).
In a second step, the PPARalpha fusion protein (GR-GAL4-humanPPARalpha-LBD was introduced into the stable cell clone described. For this purpose, initially the cDNA coding for the N-terminal 76 amino acids of the glucocorticoid receptor (Accession #P04150) was linked to the cDNA section coding for amino acids 1-147 of the yeast transcription factor GAL4 (Accession #P04386). The cDNA of the ligand-binding domain of the human PPARalpha receptor (amino acids S167-Y468; Accession #S74349) was cloned in at the 3′-end of this GR-GAL4 construct. The fusion construct prepared in this way (GR-GAL4-humanPPARalpha-LBD) was recloned into the plasmid pcDNA3 (Invitrogen) in order to enable constitutive expression therein by the cytomegalovirus promoter. This plasmid was linearized with a restriction endonuclease and stably transfected into the previously described cell clone containing the luciferase reporter element. The finished PPARalpha reporter cell line which contains a luciferase reporter element and constitutively expresses the PPARalpha fusion protein (GR-GAL4-human PPARalpha-LBD) was isolated by selection with zeocin (0.5 mg/ml) and G418 (0.5 mg/ml).
The activity of PPARalpha agonists is determined in a 3-day assay, which is described below: […]

SMILES: COc1cc(OCc2sc(-c3ccc(C(F)(F)F)cc3)nc2CNC2CC2)ccc1-c1noc(=O)[nH]1 [Example 15, 3-{4-[4-Cyclopropylaminomethyl-2-(4-trifluoromethyl-phenyl)-thiazol-5-ylmethoxy]-2-methoxy-phenyl}-4H-[1,2,4]oxadiazol-5-one]
EC50 [1]: 0.153 µM
EC50 [2]: > 10 µM

SMILES: Cc1nc(COCc2ccccc2)oc1COc1ccc(-c2noc(=O)[nH]2)c(Cl)c1 [Example 56, 3-[4-(2-Benzyloxymethyl-4-methyl-oxazol-5-ylmethoxy)-2-chloro-phenyl]-4H-[1,2,4]oxadiazol-5-one]
EC50 [1]: 0.358 µM
EC50 [2]: 2.19 µM

SMILES: O=c1[nH]c(-c2ccc(OCc3sc(-c4ccc(C(F)(F)F)cc4)nc3CN3CCC(C(F)(F)F)CC3)cc2OC(F)F)no1 [Example 94, 3-{2-Difluoromethoxy-4-[2-(4-trifluoromethyl-phenyl)-4-(4-trifluoromethyl-piperidin-1-ylmethyl)-thiazol-5-ylmethoxy]-phenyl}-4H-1,2,4-oxadiazol-5-one]
EC50 [1]: 0.018 µM
EC50 [2]: 0.664 µM

SMILES: COc1cc(OCc2sc(-c3ccc(C(F)(F)F)cc3)nc2CCCS(C)(=O)=O)ccc1-c1noc(=O)[nH]1 [Example 102, 3-{4-[4-(3-Methanesulfonyl-propyl)-2-(4-trifluoromethyl-phenyl)-thiazol-5-ylmethoxy]-2-methoxy-phenyl}-4H-1,2,4-oxadiazol-5-one]
EC50 [1]: 0.022 µM
EC50 [2]: 1.78 µM

SMILES: Cc1cc(OCc2sc(-c3ccc(C(F)(F)F)cc3)nc2CNCCN2CCOCC2)ccc1-c1noc(=O)[nH]1 [Example 51, 3-{2-Methyl-4-[4-[(2-morpholin-4-yl-ethylamino)-methyl]-2-(4-trifluoromethyl-phenyl)-thiazol-5-ylmethoxy]-phenyl}-4H-[1,2,4]oxadiazol-5-one]
EC50 [1]: 0.228 µM
EC50 [2]: 1.21 µM

SMILES: CN(CCO)Cc1nc(-c2ccc(C(F)(F)F)cc2)sc1COc1ccc(-c2noc(=O)[nH]2)c(F)c1 [Example 19, 3-{2-Fluoro-4-[4-{[(2-hydroxy-ethyl)-methyl-amino]-methyl}-2-(4-trifluoromethyl-phenyl)-thiazol-5-ylmethoxy]-phenyl}-4H-[1,2,4]oxadiazol-5-one]
EC50 [1]: 0.171 µM
EC50 [2]: 1.19 µM

SMILES: COc1cc(OCc2sc(-c3ccc(C(F)(F)F)cc3)nc2CSC)ccc1-c1noc(=O)[nH]1 [Example 89, 3-{2-Methoxy-4-[4-methylsulfanylmethyl-2-(4-trifluoromethyl-phenyl)-thiazol-5-ylmethoxy]-phenyl}-4H-1,2,4-oxadiazol-5-one]
EC50 [1]: 0.153 µM
EC50 [2]: 2.62 µM

SMILES: CC(=O)OCc1nc(-c2ccc(C(F)(F)F)cc2)sc1COc1ccc(-c2noc(=O)[nH]2)c(F)c1 [Example 33, Acetic acid 5-[3-fluoro-4-(5-oxo-4,5-dihydro-[1,2,4]oxadiazol-3-yl)-phenoxymethyl]-2-(4-trifluoromethyl-phenyl)-thiazol-4-ylmethyl ester]
EC50 [1]: 0.299 µM
EC50 [2]: 1.41 µM

Compounds with a lower EC50 [1], results first:

EC50 [1]: 0.003 µM
EC50 [2]: 0.53 µM
SMILES: COCCN(CCOC)Cc1nc(-c2ccc(C(F)(F)F)cc2)sc1COc1ccc(-c2noc(=O)[nH]2)c(Cl)c1 [Example 77, 3-{4-[4-{[Bis-(2-methoxy-ethyl)-amino]-methyl}-2-(4-trifluoromethyl-phenyl)-thiazol-5-ylmethoxy]-2-chloro-phenyl}-4H-[1,2,4]oxadiazol-5-one]

EC50 [1]: 0.008 µM
EC50 [2]: 0.483 µM
SMILES: COc1cc(OCc2sc(-c3ccc(C(F)(F)F)cc3)nc2CCCN2CCSCC2)ccc1-c1noc(=O)[nH]1 [Example 103, 3-{2-Methoxy-4-[4-(3-thiomorpholin-4-yl-propyl)-2-(4-trifluoromethyl-phenyl)-thiazol-5-ylmethoxy]-phenyl}-4H-1,2,4-oxadiazol-5-one]

EC50 [1]: 0.008 µM
EC50 [2]: 0.315 µM
SMILES: CCCCc1nc(-c2ccc(C(F)(F)F)cc2)sc1COc1ccc(-c2noc(=O)[nH]2)c(C)n1 [Example 100, 3-{6-[4-Butyl-2-(4-trifluoromethyl-phenyl)-thiazol-5-ylmethoxy]-2-methyl-pyridin-3-yl}-4H-[1,2,4]oxadiazol-5-one]

EC50 [1]: 0.003 µM
EC50 [2]: 0.319 µM
SMILES: COCc1nc(/C=C/c2ccc(OC)cc2)oc1COc1ccc(-c2noc(=O)[nH]2)c(Cl)c1 [Example 55, 3-(2-Chloro-4-[4-methoxymethyl-2-[2-(4-methoxy-phenyl)-vinyl]-oxazol-5-ylmethoxy]-phenyl)-4H-[1,2,4]oxadiazol-5-one]

EC50 [1]: 0.012 µM
EC50 [2]: 0.398 µM
SMILES: O=c1[nH]c(-c2ccc(OCc3sc(-c4ccc(C(F)(F)F)cc4)nc3COCCC3CCCCC3)cc2Cl)no1 [Example 83, 3-{2-Chloro-4-[4-(2-cyclohexyl-ethoxymethyl)-2-(4-trifluoromethyl-phenyl)-thiazol-5-ylmethoxy]-phenyl}-4H-[1,2,4]oxadiazol-5-one]
